Data as given in patent US5629406A, “Inhibitors of HIV protease” (Sankyo Company, Limited, priority 1992, dated 1997).
In brackets after ≈: the same amount, converted by molar mass. Where a name gives a salt, the structure may show the parent alone. Read-outs that look alike come from different tables or passages of the source.

How the values were obtained:
Molt 4/HTLV IIIB = test: Inhibition of the release of virus from Molt 4 cells chronically infected with HIV; type: cell-based, HIV (HTLVIIIB)
Protocol: Inhibition of the Release of Virus from Molt 4 Cells Chronically Infected with HIV (Molt 4/HTLV IIIB)
A Molt 4 cell line chronically infected with HIV, that is with HTLVIIIB, was established (Molt 4/HTLVIIIB). The cells were washed twice with growth medium (RPMI-1640 medium containing 10% v/v heat-inactivated fetal calf serum). The washed cells were then inoculated into growth medium at a density of 2×10^5 cells/ml, in the presence of selected concentrations of test compounds, at 37° C., and cultured under an atmosphere of 5% carbon dioxide.
After 48 hours, the test cultures were spun down at 1000×g for 3 minutes, and the supernatant was collected. Polyethylene glycol 6000 was added to the supernatant to a final concentration of 10% w/v, and the resulting solution was left to stand for 6 hours on ice. Virions precipitated by this procedure were subsequently obtained as a pellet by centrifuging the treated supernatants for 30 minutes at 10000×g. The amount of HIV antigen in the pellets was then determined using a commercial enzyme immunoassay (EIA) system [HIV antigen EIA kit, available from Abbot].
IC50 (the minimum concentration of test compound sufficient to reduce the amount of HIV antigen production by 50%, as determined by the EIA system) was used as a measure of anti-HIV activity.

HIV pol protease = HIV pol protease (Human immunodeficiency virus type 1 group M subtype B, UniProt P03366); test: Assay of the inhibition of HIV pol protease (synthetic substrate TE-2, HPLC of TE-3)
Protocol: The Ki, that is the dissociation constant of the enzyme-inhibitor complex, measured according to the equation [formula]
A reaction mixture containing 1 mM or 1.5 mM of the substrate TE-2, having the structure described in European Patent Publication No. 498,680, 1 μl of the desired concentration of the compound to be tested (dissolved in dimethyl sulfoxide comprising 20% v/v water), 2 μl of the enzyme solution prepared as described in step (c), above, and buffer solution [50 mM tris HCl (pH 6.0), 0.25M sodium chloride, 0.1 mM ethylenediaminetetraacetic acid, 0.1 mM Triton X-100] to form 10 μl in total, was incubated for 30 minutes at 37° C.
The reaction was Stopped by the addition of 250 μl of a 0.1% w/v solution of aqueous trifluoroacetic acid and 10% v/v acetonitrile. The reaction mixture was then subjected to Sep-pak light™ chromatography (Waters Co., Milford, Mass., USA), and the fractions passing through the column were collected.
The substrate TE-2 is decomposed by the HIV protease to form a shortened peptide of four amino acids, (TE-3; having the structure described in European Patent Publication No. 498,680). The amount of TE-3 formed was assayed quantitatively using a high performance liquid chromatography (HPLC) column [ODS-120T (Trade Mark), 4.6 mm in inner diameter ×250 mm, To-So Co.] using a mixture of 9% acetonitrile-0.05% trifluoroacetic acid as the eluting solvent.
The Ki in nM was calculated according to the method of Michaelis-Menten using the equation given above.

Compound	Ki (HIV pol protease) [µM]	also measured
CC(C)(C)NC(=O)[C@@H]1C[C@@H]2CCCC[C@@H]2CN1C[C@@H](O)[C@H](Cc1ccccc1)NC(=O)[C@H](CC(N)=O)NC(=O)c1ccc2ccccc2n1 [Ro31-8959, 3-t-butylaminocarbonyl-2-{(2R, 3S)-3-[(N-2'-quinolinecarbonyl-L-asparaginyl)amino]-2-hydroxy-4-phenylbutyl}-(3S, 4aS, 8aS)-decahydroisoquinoline, reference compound]	–	IC50 (concentration reducing HIV antigen production by 50%) (Molt 4/HTLV IIIB; Molt 4/HTLVIIIB cells, 48 hours, HIV antigen in precipitated virions by EIA): > 20.0 mg/L; Ki (HIV pol protease; 1 mM or 1.5 mM substrate TE-2, pH 6.0, 30 minutes at 37° C., calculated by Michaelis-Menten): 0.058 µM
CC(C)(C)NC(=O)[C@@H]1C[C@H](Cl)CN1C(=O)[C@@H](O)[C@H](Cc1ccccc1)NC(=O)[C@H](CC(N)=O)NC(=O)c1cnc2ccccc2n1 [Example 14, (4S)-1-{(2S,3S)-3-[N^2-(2-Quinoxalinecarbonyl)-L-asparaginyl]amino-2-hydroxy-4-phenylbutyryl}-N-t-butyl-4-chloro-L-prolinamide]	0.0047	IC50 (Molt 4/HTLV IIIB; Human immunodeficiency virus 1, IIIB, MOLT-4, 48 h, read-out: IC50 (concentration reducing HIV antigen production by 50%)): 0.39 mg/L (≈ 0.598 µM)
CC(C)(C)NC(=O)[C@@H]1C[C@H](Cl)CN1C(=O)[C@@H](O)[C@H](Cc1ccccc1)NC(=O)[C@H](CC(N)=O)NC(=O)OCc1ccccc1 [Example 1, (4S)-1-[(2S,3S)-3-(N^2 -Benzyloxycarbonyl-L-asparaginyl)amino-2-hydroxy-4-phenylbutyryl]-N-t-butyl-4-chloro-L-prolinamide]	0.008	–
CN(C)c1ccc(OCC(=O)N[C@@H](CC(N)=O)C(=O)N[C@@H](Cc2ccccc2)[C@H](O)C(=O)N2CCC[C@H]2C(=O)NC(C)(C)C)cc1 [Example 21, 1-[(2S,3S)-3-{N^2-[4-(N,N-Dimethylamino)phenoxyacetyl]-L-asparaginyl}amino-2-hydroxy-4-phenylbutyryl]-N-t-butyl-L-prolinamide]	0.037	–
CC(C)(C)NC(=O)[C@@H]1CCCN1C(=O)[C@@H](O)[C@H](Cc1ccccc1)NC(=O)[C@H](CC(N)=O)NC(=O)COc1ccc(NC(=O)OCc2ccccc2)cc1 [Example 16, 1-[(2S,3S)-3-{N^2-[4-(Benzyloxycarbonylamino)phenoxyacetyl]-L-asparaginyl}amino-2-hydroxy-4-phenylbutyryl]-N-t-butyl-L-prolinamide]	0.014	–
CC(C)(C)NC(=O)[C@@H]1CCCN1C(=O)[C@@H](O)[C@H](Cc1ccccc1)NC(=O)[C@H](CC(N)=O)NC(=O)COc1ccc(N)cc1 [Example 17, 1-{(2S,3S)-3-[N^2-(4-Aminophenoxyacetyl)-L-asparaginyl)amino-2-hydroxy-4-phenylbutyryl]-N-t-butyl-L-prolinamide hydrochloride]	0.0185	–
CC(C)(C)NC(=O)[C@@H]1C[C@@H](O)CN1C(=O)[C@@H](O)[C@H](Cc1ccccc1)NC(=O)[C@H](CC(N)=O)NC(=O)OCc1ccccc1 [Example 4, (4R)-1-[(2S,3S)-3-(N^2 -Benzyloxycarbonyl-L-asparaginyl)amino-2-hydroxy-4-phenylbutyryl]-N-t-butyl-4-hydroxy-L-prolinamide]	0.056	–
CC(C)(C)NC(=O)[C@@H]1CCCN1C(=O)[C@@H](O)[C@H](Cc1ccccc1)NC(=O)[C@H](CC(N)=O)NC(=O)COc1ccc(NC(=O)CN)cc1 [Example 18, 1-[(2S,3S)-3-{N^2-[4-(Glycylamino)phenoxyacetyl]-L-asparaginyl}amino-2-hydroxy-4-phenylbutyryl]-N-t-butyl-L-prolinamide hydrochloride]	0.03	–
CNc1ccc(OCC(=O)N[C@@H](CC(N)=O)C(=O)N[C@@H](Cc2ccccc2)[C@H](O)C(=O)N2CCC[C@H]2C(=O)NC(C)(C)C)cc1 [Example 20, 1-[(2S,3S)-3-{N^2-[4-(Methylamino)phenoxyacetyl]-L-asparaginyl}amino-2-hydroxy-4-phenylbutyryl]-N-t-butyl-L-prolinamide hydrochloride]	0.049	–
